For assay [1], the system named is YAP knockdown podocytes. In words: Rescue of YAP knockdown podocyte morphology (phalloidin/paxillin staining). Format: cell-based, mouse.
Experimental: Podocytes were cultured as previously described (2, 14, 35). Briefly, conditionally immortalized murine podocytes were cultured in Dulbecco's modified Eagle's medium (DMEM; Life Technologies) supplemented with 10% heat-inactivated fetal bovine serum (Life Technologies) and 100 U/mL penicillin-streptomycin (Life Technologies) on type I collagen (Corning, Corning, NY) coated dishes or flasks. Undifferentiated podocytes were maintained at 33° C. in the presence of 10 U/mL mouse γ-interferon (Cell Sciences, Canton, MA) to drive T-antigen expression. To induce differentiation, podocytes were thermo-shifted to a 37° C. incubator and switched to medium lacking γ-interferon.
The pLKO.1 plasmids (YAP shRNA or control shRNA) along with the helper plasmids psPAX^2 and pMD2.G were transfected into HEK293T cells at 70% confluence using FuGENE 6 (Promega). Medium was replaced 16-18 h after transfection. 36 and 60 h after transfection, virus-containing supernatants were harvested and centrifuged at 3,000 rpm for 5 min. Viral particles were then passed through a 0.45-μm filter. The supernatants were subsequently used for the infection of target cells in the presence of 4 μg/ml Polybrene (Sigma). […]
Changes in the organization of the actin cytoskeleton were assessed by phalloidin staining and paxillin staining as described previously. […]
For assay [2], the target named is T1, KCa3.1 (Mus musculus, UniProt O89109).
T1 construct: endogenous in cells; host or cells: YAP shRNA (YAP KD) conditionally immortalized mouse podocytes
Briefly: Whole-cell patch clamp electrophysiology in YAP silenced podocytes. Format: cell-based. The protocol:
(§1) Cells plated on coverslips are transferred to a submersion recording chamber and continuously perfused (2-4 ml/min) with RPMI cell culture medium containing (in mM): NaCl 124, KCl 2.5, NaH2PO4 1.2, NaHCO3 24, HEPES 5, glucose 12.5, MgSO4 2, and CaCl2 2, pH 7.4. The solution is continuously bubbled with 95% O2/5% CO2, and recordings are obtained at 25±1° C. Cells are recorded under infrared differential contrast optics (BX51; Olympus). After control readings are measured, the solution is then switched to the solutions containing the molecules. […] Recording pipettes (3-5 MΩ), pulled from borosilicate glass, are filled with internal solution containing (in mM): K gluconate 120, HEPES 10, KCl 20, MgCl2 1, MgATP 2, Na2GTP 0.5, Na-phosphocreatine 10, CaCl2 1.71 and EGTA 2, pH 7.25. Data are acquired with a Multiclamp 700 A amplifier (Molecular Devices), subsequently filtered at 10 kHz and digitized at 10 kHz, and analysis is performed with pClamp 11 software (Molecular Devices). Whole-cell data will be collected. All data will be recorded at room temperature.
A general note: In patch-clamp work, channel activity is measured electrically.

Assay [3] addresses T2, KCa3.1 (Homo sapiens, UniProt O15554).
T2 construct: expressed in transfected cells; host or cells: immortalized mouse podocytes (KCNN4 OE)
Briefly: Whole-cell patch clamp electrophysiology in KCNN4 overexpression podocytes. In kind it is cell-based, mouse. The following applies: KCNN4 OE podocytes. On the procedure:
as §1

Assay [4] deals with YAP KD podocytes. Briefly: Intracellular calcium dynamics in YAP KD podocytes (Fluo-3, ATP stimulation). Format: cell-based, mouse. The following applies: for CaD50 / time to peak of calcium uptake: YAP silenced podocytes, upon ATP stimulation. On the procedure: Intracellular calcium dynamics were measured in wild type and YAP KD podocytes loaded with Fluo-3, stimulated with ATP ([…]) and imaged for 3 minutes at 1 frame per 0.5 seconds on a high-speed Zeiss 880 laser scanning confocal microscope with automated CO2incubator stage.
Isolated cells were superfused with Tyrode solution containing (mm): NaCl 140, KCl
5, Hepes 5, NaH2PO4 1, MgCl2 1, CaCl2 1.8, glucose 10 (pH 7.4). To allow for confocal imaging of [Ca^2+]i, cells were loaded for 30 min with 5 μm fluo-3 AM (Molecular Probes, Eugene, OR, USA), then washed and stored for 20 min in Tyrode solution to enable dye de-esterification. Confocal imaging in line-scan mode was performed on a Zeiss 510 microscope. Cells were scanned with light at 488 nm from an argon-ion laser, and fluorescence above 505 nm was recorded. To generate repeated Ca^2+ sparks at a limited number of locations, 50 nm ryanodine (Calbiochem, San Diego, CA, USA) was added to the external solution.

Assay [5] relates to podocytes. In words: LPS-induced podocyte injury in vitro. Format: cell-based, mouse. As to conditions: LPS 100 μg/ml for 24 hrs, co-treatment. On the procedure: (§2) The ability of KCa3.1 inhibitors to protect from podocyte injury induced by lipopolysaccharide (LPS) was tested in vitro and in vivo. […] The protective effect was tested in vivo by administering LPS to 8-week old C57BL/6J mice at 0 hr and 24 hrs.
Differentiated podocytes were exposed to different doses of LPS (50-100 μg/ml) for 24 hours. Changes in the organization of the actin cytoskeleton were assessed by phalloidin staining and paxillin staining as described previously. Each set of experiments was repeated at least three times. Briefly, cells were fixed with 4% PFA, 4% sucrose in PBS at room temperature for 15 minutes and then permeabilized with 0.3% Triton X-100 in PBS with washes in between. Coverslips were washed 3× with PBS and incubated blocking solution (2% FCS, 2% BSA, 0.2% fish gelatin) for 30 minutes at room temperature before further incubation with one of the primary antibodies for 1 hour at room temperature. For double labeling, sections were washed three times with PBS for 5 minutes, and the second primary antibody was applied for 60 minutes. Antigen-antibody complexes were visualized with secondary antibodies 1:500 (Life Technologies) conjugated with fluorochrome (Alexa 488, Alexa 594, or Alexa 647) for 1 hour at room temperature. For stress fibers, phalloidin-rhodamine was used. For the nuclei, we used DAPI. Confocal microscopy with Leica DMI was done.

For assay [6], the system named is C57BL/6J mice. Briefly: LPS-induced glomerular disease in mice. Format: in vivo, mouse. The following applies: for albuminuria: 48 hours after LPS injection, compound given at 12 hr and 24 hr. The protocol:
as §2
Albuminuria was qualitatively screened using a 10% SDS-PAGE gel followed by Coomassie-blue staining. BSA standards of 0.1, 0.5, 5 μg were used and 5 μl urine was used from each sample to quantify urine albumin in duplicate using commercial kits, according to the manufacturer's protocol (mouse albumin ELISA, Bethyl Laboratories).

Where [7] appears, read: expected K+ equilibrium (VK) calculated at -83 mV.

Entries after “also recorded” stand apart in the source; their conditions may differ.

For the compound `Brc1ccccc1-c1nc2ccccc2[nH]1` [BT563, 2-(2-bromophenyl)-1H-benzo[d]imidazole], in assay [1], the “rescue from focal adhesion loss and F-actin reorganization” value is “most consistently rescued”. Besides, the KCa3.1 conductance entry in assay [2] and in assay [3] was “decreased KCa3.1 conductance” each time. In addition, the “crossover potential of before and after I-V plots” value in assay [2] (setting [7]) is reported as “closer to the expected K+ equilibrium (VK)”. Besides, in assay [4] (YAP knockdown cells, 5uM and 10 uM), the stimuli to peak entry is on record as “significantly decreased”. Further, in assay [4], the CaD50 result was “decreased”. In assay [4], the “time to peak of calcium uptake” value is “decreased”. Moreover, the “LPS-induced actin cytoskeletal reorganization and loss of focal adhesions” value in assay [5] is on record as “abrogated”. Besides, the albuminuria result in assay [6] is listed as “statistically significant decrease; also recorded: decreased albuminuria”. For the same compound, in assay [6] (LPS treated mice), the “foot process injury (scanning EM)” value is recorded as “not seen; also recorded: rescue of LPS-induced podocyte foot process disruption”.

For `Cc1ccn2cc(-c3ccccc3)nc2c1` [BT564, 7-methyl-2-phenylimidazo[1,2-α]pyridine], in assay [1], the “rescue from focal adhesion loss and F-actin reorganization” value is listed as “most consistently rescued”. Further, in assay [2], the KCa3.1 conductance entry was “decreased KCa3.1 conductance”. Also, the KCa3.1 conductance result in assay [3] was “decreased KCa3.1 conductance”. In addition, in assay [4], the CaD50 entry is “decreased” and the “time to peak of calcium uptake” value was “decreased”. For the same compound, the “LPS-induced actin cytoskeletal reorganization and loss of focal adhesions” value in assay [5] is on record as “abrogated”. In addition, the albuminuria result in assay [6] is “not”.

In the case of `Cc1cc2nc(N)oc2c2ccccc12` [SKA121, reference compound], the KCa3.1 conductance entry in assay [2] and in assay [3] was “enhanced” each time.

For the compound `Clc1ccccc1C(c1ccccc1)(c1ccccc1)n1cccn1` [TRAM-34, reference compound], the KCa3.1 conductance result in assay [2] and in assay [3] was “decreased” each time. In assay [3] (setting [7]), the “crossover potential of before and after I-V plots” value is recorded as “did cross at the expected K+ equilibrium”. Also, the CaD50 entry in assay [4] is reported as “decreased”. The “time to peak of calcium uptake” value in assay [4] was “decreased”.

Values taken from US20240391880A1, “KCa3.1 INHIBITORS FOR PODOCYTE PROTECTION” (Icahn School of Medicine at Mount Sinai, priority 2021, published 2024).
